Results on 2 molecules are retold here after patent US12391768B2, “Antibodies to ticagrelor and methods of use” (MEDIMMUNE LIMITED, priority 2014, dated 2025).

For one data set, the target named is TICA0010 Fab. Nature of the data set: HTRF competition binding selectivity assay, TICA0010 His-Fab. Also on record: species or system human. Particulars: first series (Table 2), not DMSO normalised; read-out: IC50 (uM) for inhibition of biotinylated ticagrelor binding to TICA00l0 his-Fab. How it is done: (§1) Total Binding control wells were set up which contained all of the assay components above except that 5 ul assay buffer was added in place of the test selectivity compound addition. Negative Binding control wells were set up which contained all of the assay components included in the Total Binding control wells except that 5ul assay buffer was added in place of the His-Fab addition. Test compound serial titrations were either ½ or ⅓ depending on the particular experiment and top final assay compound concentrations were optimized on a compound specific basis. The concentration of biotinylated ticagrelor and His-Fab was optimized on a Fab specific basis in separate experiments. For the four Fabs investigated at the end of the lead isolation phase (TICA0010, TICA0049, TICA0053 and TICA0072) the final assay reagent concentrations used are set out in Table 1 below:
(§2) For the two Fabs investigated at the end of the lead optimization phase (TICA0162 and TICA0212) the final assay reagent concentrations used were 5nM biotinylated ticagrelor and 1 nM His Fab in both cases. […] In order to enable subsequent normalization of data to correct for any such vehicle related effects parallel titrations of DMSO alone were included in most experiments in which the final assay DMSO concentrations mirrored those of the test compound serial dilutions. At the end of the set up procedure that assay was incubated for 3hrs at RT before being read on an Envision plate reader using a standard read protocol.
(§3) The negative ratio value used in the calculation of % Delta F was derived from the Negative Binding control wells. % Delta F values were then used to calculate % Specific Binding values according to the equation below: Specific Binding (%)={(Sample Delta F−Negative Binding Delta F)/(Total Binding Delta F−Negative Binding Delta F)}×100
(§4) For standard calculations of % Specific Binding Total Binding Delta F was taken from Total Binding control wells which contained all of the aforementioned components of the assay but without inclusion of any competing test compound.
(§5) In those experiments where DMSO normalization was applied DMSO normalised % Specific Binding was calculated essentially according to the equation above except that in this case Total Binding Delta F was taken from wells containing all of the components in the Total Binding control wells as well as DMSO at a concentration equivalent to that in the relevant sample well.

The target of another data set is TICA0049 Fab. Nature of the data set: HTRF competition binding selectivity assay, TICA0049 His-Fab. Set-up: species or system human. As to conditions: second series (Table 3), DMSO normalised; read-out: IC50 in competition binding selectivity studies, TICA0049. How it is done:
as §1, §2, §3, §4, §5
(§6) In a second series of experiments further selectivity data was generated for TICA0049 and TICA0072 Fabs in which a subset of four of the twelve compounds listed in FIG. 4 were retested along with ticagrelor, TAM and TIM and several adenosine related compounds. Here, in a refinement to the earlier investigations in Table 2, experiments were designed in order to enable normalisation of percent specific binding values to correct for any non-specific vehicle related effects due to DMSO. Example plotted data from this second series of experiments is shown in FIG. 5A-F along with tabulated IC50 values in Table 3.
(In general: TR-FRET usually uses a lanthanide donor and a delayed reading to cut background.)

A further data set addresses TICA0053 Fab. Nature of the data set: HTRF competition binding selectivity assay, TICA0053 His-Fab. Also on record: species or system human. As to conditions: first series (Table 2), not DMSO normalised; read-out: IC50 (uM) for inhibition of biotinylated ticagrelor binding to TICA0053 his-Fab. How it is done:
as §1, §2, §3, §4, §5

For another data set, the target named is TICA0072 Fab. The experiment in a line: HTRF competition binding selectivity assay, TICA0072 His-Fab. Particulars: second series (Table 3), DMSO normalised; read-out: IC50 in competition binding selectivity studies, TICA0072. Set-up: species or system human. As for the experimental part: as §1, §2, §3, §4, §5, §6
A further data set addresses TICA0162 Fab. The experiment in a line: HTRF competition binding selectivity assay, TICA0162 His-Fab. Set-up: species or system human. As to conditions: Table 7, DMSO normalised; 5 nM biotinylated ticagrelor, 1 nM His Fab; read-out: IC50 (uM) for inhibition of biotinylated ticagrelor binding to TICA0162 Fab. As for the experimental part:
as §1
as §2, with “protocol. […]” for “protocol.”
as §5

The target of the next data set is TICA0212 Fab. Nature of the data set: HTRF competition binding selectivity assay, TICA0212 His-Fab. Also on record: species or system human. Particulars: Table 7, DMSO normalised; 5 nM biotinylated ticagrelor, 1 nM His Fab; read-out: IC50 (uM) for inhibition of biotinylated ticagrelor binding to TICA0212 Fab. As for the experimental part:
as §1
For the two Fabs investigated at the end of the lead optimization phase (TICA0162 and TICA0212) the final assay reagent concentrations used were 5nM biotinylated ticagrelor and 1 nM His Fab in both cases. […] At the end of the set up procedure that assay was incubated for 3hrs at RT before being read on an Envision plate reader using a standard read protocol. […]

Data set [1] is described as follows: Total plasma concentration of ticagrelor and TAM (LC-MS/MS). The class given is in vivo, mice. As to conditions: Example 12. How it is done:
Blood samples were collected in tubes with EDTA anticoagulant and centrifuged for 5 min at 10000× g at room temperature to prepare plasma. The plasma concentration of ticagrelor and TAM were determined by protein precipitation and liquid chromatography with tandem mass spectrometry (LC-MS/MS) as described in published method [Sillén H., et al., J Chromatogr B Analyt Technol Biomed Life Sci 2010; 878: 2299-306] with the following deviations. Plasma, 50 μL, was protein precipitated with 180 μl internal standard (D7-ZD6140) in acetonitrile. The liquid chromatographic system and mass spectrometer was an Acquity Ultra Performance LC coupled to a Xevo TQ-S mass spectrometer from Waters. Chromatographic separation was achieved on an Aquity UPLC® BEH C18 column (2.1×50 mm, particle size 1.7 um). Negative electrospray ionization was utilized. Eluent A was water with 10 mmol/L ammonium acetate, pH5 and eluent B was acetonitrile with 10 mmol/L ammonium acetate. Injection volume was 1 to 5 μL and the analytical gradient started with 4% B, increasing to 95% in 1.5 min, remaining until 2.3 min, before returning to initial conditions within 2.4 min followed by 0.3 min re-equilibration. No quality control samples were used in the analysis. The lower limit of quantification (LLOQ) was 0.005 μmol/L and the calibration range was 0.005 to 15.0 μM.
The total plasma concentrations of ticagrelor and TAM in presence of TICA0212/MEDI2452 were determined by adding 1% formic acid (FA: Sample, 1:5) followed by protein precipitation and LC-MS/MS as described above. Formic acid was added to the sample to facilitate dissociation of ticagrelor and TICA0212/MEDI2452.

The conditions of data set [2]: cited from earlier work.
The next data set deals with P2Y12 (Homo sapiens, UniProt Q9H244). As to conditions: cited from earlier work.
Data set [3] concerns the target TICA0159 IgG binding to biotinylated ticagrelor. Nature of the data set: Second generation HTRF epitope competition assay. As for the experimental part:
Purified parent TICA0072 (scFv or Fab) was used as a benchmark in all experiments such that improvements in IC50 measured with optimized variants (scFv or Fab) could be expressed as fold improvements over parent TICA0072. Total Binding Control Wells contained all assay components except that 5 ul assay buffer was added in place of the purified scFv or Fab sample. Negative Binding control wells contained all of the components of the Total Binding control wells except that 5 ul of assay buffer was added in place of the TICA0072 IgG.
In both single point HTS and multipoint IC50 profiling versions of the assay. plates were incubated for 3 hrs at RT before being read on an Envision plate reader using a standard HTRF read protocol in which samples are excited at 337 nm and time resolved fluorescence emission is measured at both 620 nm and 665 nM.
Raw 665 nm and 620 nm counts were used to calculate Delta F (%) and % Specific Binding according to the equations described earlier in Assays 1 and 4, respectively. For multipoint secondary profiling experiments IC50 values were determined using Graphpad Prism software using sigmoidal dose response (variable slope) curve fitting (4 parameter logistic equation).
This assay was used only in multipoint IC50 profiling format (as opposed to HTS format) and was performed essentially identically to the method given in Assay 5 (above) for multipoint IC50 profiling of purified Fab variants in the parent TICA0072 IgG based epitope competition assay. The only difference being that TICA0159 IgG was used in place of TICA0072 IgG at the appropriate point in the assay set up but at the same 16nM final assay concentration. In all other respects this assay was performed exactly as described above in the multipoint secondary profiling version for purified Fab.

Data set [4] in a line: HTRF HTS of periplasmic scFv, Assay 3 versus Assay 1. As to conditions: 30 nM biotinylated ticagrelor, 50-fold excess (1500 nM) unmodified ticagrelor. Format: binding. An excerpt: Using known techniques, a human scFv phage display library was used to generate scFv antibodies, and specific scFvs were isolated from the library in a series of repeated selection cycles on biotinylated ticagrelor with deselection on biotinylated adenosine, essentially as described in Lloyd et al 2009 PEDS 22: 159-168, incorporated herein by reference. A number of individual clones from the round 2 and round 3 selection outputs were selected, seFvs were expressed in the bacterial periplasm and screened for specificity in three parallel biochemical assays. […]
Assays 1, 2, and 3 were performed using the same general techniques and strategy. […] HTRF® (homogeneous time resolved fluorescence) is based upon the principle of TR-FRET (time resolved fluorescence resonance energy transfer). […] Provided the donor and acceptor fluorophores are in sufficiently close proximity (approx. <10 nm), the excitation of the Europium cryptate donor (337 nm) results in a transfer of energy to the XL^665 acceptor which in turn emits a fluorescence signal at 665 nm. […]
Raw 665 nm and 620 nm counts were first converted into 665 nm/620 nm ratio values and subsequently results were expressed as Delta F (%) values. Delta F was calculated according to the following equation: Delta F (%)={((sample 665/620 ratio)−(negative 665/620) ratio))/(negative 665/620 ratio)}×100 […]

P2Y12, sequence (Q9H244 whole entry): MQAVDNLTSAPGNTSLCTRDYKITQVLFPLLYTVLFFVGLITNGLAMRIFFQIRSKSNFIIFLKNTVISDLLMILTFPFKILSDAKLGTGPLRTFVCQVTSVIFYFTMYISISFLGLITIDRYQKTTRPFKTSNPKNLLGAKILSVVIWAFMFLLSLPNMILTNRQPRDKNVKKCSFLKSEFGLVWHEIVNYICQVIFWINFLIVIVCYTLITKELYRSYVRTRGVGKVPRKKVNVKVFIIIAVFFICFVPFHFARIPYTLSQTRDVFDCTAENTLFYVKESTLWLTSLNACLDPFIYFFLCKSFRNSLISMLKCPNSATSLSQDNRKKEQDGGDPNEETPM

For the molecule `CCCSc1nc(N[C@@H]2C[C@H]2c2ccc(F)c(F)c2)c2nnn([C@@H]3C[C@H](O)[C@@H](O)[C@H]3O)c2n1` [TAM], the 50% inhibitory concentration (IC50) on TICA0010 Fab turned out to be 0.124 µM; at TICA0049 Fab, 366 nM; on TICA0053 Fab, 0.134 µM; on TICA0072 Fab it was 483 nM; on TICA0162 Fab it was 0.032 µM; on TICA0212 Fab it was 0.031 µM. Moreover, the “mean total plasma concentration” value in [1] (end of ticagrelor infusion 300 μg/kg/min 20 min, mice) amounted to 0.3 µM. In data set [1] (vehicle treated mice, t=30 minutes), the “mean total plasma concentration at time of tail cut” value was determined as 0.6 µM. Further, the circulating half-life in data set [2] (human, in vivo) was 12 h. The “concentration as % of the parent ticagrelor concentration” value in data set [2] (patients on BRILINTA/BRILIQUE) is given as 30-40%. In addition, the P2Y12 antagonist activity result on P2Y12 is reported as “equally effective”.

B1: TICA0072: parent anti-ticagrelor/TAM antibody; VH SEQ ID NO:32, VL SEQ ID NO:37 (antibody, listed as Homo sapiens, V domains shown)
VH: QVQLQESGAEVKKPGSSVRVSCKASGGTFDSYSIHWVRQAPGQGLEWMGGIIPAFGTLSSAQDFQARVTISADKSTSTAYMELSGLRSEDTAVYYCARGSHLYDFWSASHPPNDALAIWGQGTLVTVSS
VL: QSVVTQPPSVSAAPGQKVTISCSGSNSDIGNNYVSWYQQLPGTAPKLLIYDNNKRPSGIPDRFSGSKSGTSATLAITGLQAGDEADYYCGTWDISLSAGLFGGGTKVTVL
For the molecule B1, the half-inhibitory concentration (IC50) in data set [3] (Fab, 16 nM TICA0159 IgG, 1 nM biotinylated ticagrelor) stood at 1710 nM. For the same molecule, the “Fold Improved” value in data set [3] (IC50 relative to parent TICA0072 Fab) came out at 0. In data set [4], the “% inhibition of binding observed in Assay 3 versus Assay 1” value is listed as greater than 90%.

As usually defined, the IC50 is the concentration needed to halve the response being measured.
